Source: US10781472B2, “Systems and methods for determining cyclic nucleotide concentration and related pathway activation” (PROMEGA CORPORATION, priority 2005, dated 2020)
Each block holds one molecule with its values, some of them ahead of it.

Legend:
[1] = target: dopamine receptor D1 (DRD1) (Homo sapiens, UniProt P21728); conditions: 1 μg DRD1 plasma membranes, 15 min induction (FIG. 10)
Protocol: Plasma membranes (1 μg of protein in 25 μl of Stimulation Buffer) and 10 μM GDP were added to the wells of a 96-well plate and incubated at room temperature for 10 minutes. Twenty microliters of each compound dilution was added to specific wells. Induction was carried out for 15 minutes at room temperature followed by addition of 40 μl of PKA/Substrate Reagent. The reactions were allowed to incubate for an additional 20 minutes at room temperature followed by addition of 80 μl of Kinase-Glo™ Reagent. Luminescence was read 10 minutes after addition of the Kinase-Glo™ Reagent and output was recorded as relative light units (RLU) and plotted against forskolin concentration using GraphPad Prism® Software Version 4.0.

phosphodiesterase PDE V = phosphodiesterase PDE V (Homo sapiens, UniProt O76074); experiment: cGMP-PDE (PDE V) activity in the presence of inhibitor, PKA/Kinase-Glo luminescence; format: biochemical; conditions: 15 U PDE V, cGMP substrate, 30 min (FIG. 7B)
Protocol: A two-fold serial dilution of Zaprinast (20 μM) was made in Stop Buffer without IBMX and ATP, supplemented with 10 μM cGMP. An enzyme solution containing PDE V was also made so that every 12.5 μl of the enzyme solution contained 15 U (Stop Buffer without IBMX and ATP) of the enzyme. An aliquot (12.5 μl) of each dilution was added to the reaction wells and an equal amount of the phosphodiesterase PDEV enzyme solution was added to start the reaction. The plate was incubated for 30 min. at room temperature, followed by addition of 12.5 μl of Stop Buffer supplemented with 1.5 mM IBMX and 4 μM ATP to stop the reaction. An equal volume of a PKA/substrate reagent containing 100 ng/well Holoenzyme-R-II α protein kinase A, 40 μM Kemptide, 40 mM Tris HCl pH 7.5, 20 mM MgCl2, and 0.1 mg/ml BSA was added to each well, the plate was incubated for an additional 20 min., and 50 μl of Kinase-Glo™ Reagent was added.

[2] = target: T1, Holoenzyme-R-II α protein kinase A (Homo sapiens, UniProt P13861); experiment: Side by side titration of cAMP and cGMP for activation of PKA; format: biochemical; conditions: FIG. 6
T1 construct: purchased BIAFFIN GmbH & Co., Kassel, Germany
Protocol: Two-fold serial dilutions of cAMP and cGMP (initial concentration of both 40 μM) were made in Stop Buffer without ATP and IBMX, but supplemented with 2 μM ATP. Twenty-five μl of the dilutions were aliquoted into white 96-well plates, followed by the addition of 25 μl of a PKA/substrate reagent containing 100 ng/well Holoenzyme-R-II α protein kinase A, 20 μM Kemptide, 40 mM Tris HCl pH 7.5, 20 mM MgCl2, and 0.1 mg/ml BSA. The reactions were allowed to incubate for 20 min. at room temperature, and 50 μl of Kinase-Glo™ Reagent was added followed by an additional 10 min. incubation. Luminescence was measured 10 min. after addition of the Kinase-Glo™ Reagent and output was recorded as RLUs (n=2) and plotted against cyclic nucleotide (cNMP) concentration using GraphPad Prism® Software Version 4.0.

T1 sequence (P13861 whole entry): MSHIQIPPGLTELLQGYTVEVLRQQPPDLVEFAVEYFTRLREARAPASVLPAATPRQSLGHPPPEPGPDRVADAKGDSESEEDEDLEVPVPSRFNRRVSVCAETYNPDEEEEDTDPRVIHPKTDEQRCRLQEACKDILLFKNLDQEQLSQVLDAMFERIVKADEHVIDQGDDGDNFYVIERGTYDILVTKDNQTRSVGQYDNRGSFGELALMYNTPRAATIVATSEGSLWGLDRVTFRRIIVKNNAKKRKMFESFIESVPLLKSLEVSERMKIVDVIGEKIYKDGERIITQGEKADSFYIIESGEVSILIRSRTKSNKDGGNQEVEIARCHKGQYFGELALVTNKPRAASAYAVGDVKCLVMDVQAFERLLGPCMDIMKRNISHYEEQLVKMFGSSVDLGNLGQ
Chain of dopamine receptor D1 (DRD1) (P21728 whole entry): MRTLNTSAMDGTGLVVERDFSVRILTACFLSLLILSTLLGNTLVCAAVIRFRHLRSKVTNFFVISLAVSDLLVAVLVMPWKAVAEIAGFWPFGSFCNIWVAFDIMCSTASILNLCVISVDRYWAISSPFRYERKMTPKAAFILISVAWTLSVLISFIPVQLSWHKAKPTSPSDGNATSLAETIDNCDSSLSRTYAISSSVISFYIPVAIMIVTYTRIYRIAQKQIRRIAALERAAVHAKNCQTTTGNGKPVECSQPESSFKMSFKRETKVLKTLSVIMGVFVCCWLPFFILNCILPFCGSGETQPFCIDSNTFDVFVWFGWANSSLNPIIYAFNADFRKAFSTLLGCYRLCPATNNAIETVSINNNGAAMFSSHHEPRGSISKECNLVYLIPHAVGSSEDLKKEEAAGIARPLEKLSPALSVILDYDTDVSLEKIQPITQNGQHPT

SMILES: Oc1cc2c(cc1O)C(c1ccccc1)CNCC2 (stereo not drawn) [SKF38393, 1-Phenyl-2,3,4,5-tetrahydro-(1H)-3-benzazepine-7,8-diol]
- luminescent signal as agonist concentration increases (DRD1 activation) [1]: luminescent signal decreases

- relative light units as inhibitor amount increases (PDE V inhibition) (phosphodiesterase PDE V): relative light units decrease
SMILES: CCCOc1ccccc1-c1nc2nn[nH]c2c(=O)[nH]1 [Zaprinast]

- binding to regulatory subunits of PKA, affinity relative to cAMP [2]: lower affinity than that of cAMP
SMILES: Nc1nc2c(ncn2[C@@H]2O[C@@H]3COP(=O)(O)O[C@H]3[C@H]2O)c(=O)[nH]1 [cGMP, guanosine 3′, 5′cyclic monophosphate]
